Patent publication US20250222120A1, “SYNTHESIS OF NOVEL SMALL MOLECULE CARM1 DEGRADERS, COMPOUNDS FORMED THEREBY, AND PHARMACEUTICAL COMPOSITIONS CONTAINING THEM” (Wisconsin Alumni Research Foundation, priority 2024, published 2025)

Target: T1, CARM1 (Homo sapiens, UniProt Q86X55)
T1 sequence (Q86X55 1-608): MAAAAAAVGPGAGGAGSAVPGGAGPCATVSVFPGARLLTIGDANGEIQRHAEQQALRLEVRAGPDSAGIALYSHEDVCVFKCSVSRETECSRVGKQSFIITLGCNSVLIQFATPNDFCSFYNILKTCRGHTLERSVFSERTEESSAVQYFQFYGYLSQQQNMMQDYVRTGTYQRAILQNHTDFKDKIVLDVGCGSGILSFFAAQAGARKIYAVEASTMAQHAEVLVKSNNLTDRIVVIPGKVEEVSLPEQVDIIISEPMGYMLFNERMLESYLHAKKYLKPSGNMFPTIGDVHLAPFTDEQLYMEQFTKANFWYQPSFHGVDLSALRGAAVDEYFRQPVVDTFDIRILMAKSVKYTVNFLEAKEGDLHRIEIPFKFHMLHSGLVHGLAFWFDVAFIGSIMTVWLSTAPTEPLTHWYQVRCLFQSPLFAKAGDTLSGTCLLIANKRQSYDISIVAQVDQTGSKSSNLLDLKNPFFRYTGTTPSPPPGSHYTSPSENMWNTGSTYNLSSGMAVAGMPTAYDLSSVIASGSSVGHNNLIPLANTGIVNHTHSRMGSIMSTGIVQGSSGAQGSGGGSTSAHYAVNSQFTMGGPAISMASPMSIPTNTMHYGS
Assay: Global proteomics of MCF7 cells, CARM1 level
Assay type: cell-based
Parameters: we performed a global quantitative proteomic analysis of MCF7 cells using mass spectrometry; endogenous in cells; host or cells: MCF7
Details: 25 nM, 4 h, versus DMSO
Description: Sample preparation for global proteomics analysis. Sample preparation is similar to the previous report (Ma et al. “Strategy Based on Deglycosylation, Multiprotease, and Hydrophilic Interaction Chromatography for Large-Scale Profiling of Protein Methylation” Anal. Chem. 2017, 89 (23), 12909-12917). Briefly, treated MCF7 cells were harvested by washing with PBS buffer (Gibco, pH 7.4) and lysed in RIPA buffer supplemented with protease inhibitors for 20 min, then protein concentration was determined using a BCA Protein Assay Kit (Thermo Pierce, Rockford, IL) per manufacturer instructions. […] The concentrations of the peptide mixture were measured by peptide assay (Thermo Fisher Scientific). […]
LC-MS/MS data acquisition. Samples were analyzed on an Orbitrap Fusion Lumos Tribrid mass spectrometer (Thermo Fisher Scientific) coupled to a Dionex UltiMate 3000 UPLC system. […]
Data analysis. Protein identification and quantification by MaxQuant (version 1.5.3.8) based database searching, using the integrated Andromeda search engine with FDR <1% at peptide and protein levels. […] For label-free protein quantification (LFQ), the MaxQuant LFQ algorithm was used to quantitate the MS signals, and the proteins' intensities were represented in LFQintesnit (Schaab et al. “Analysis of High Accuracy, Quantitative Proteomics Data in the MaxQB Database” Mol. Cell. Proteomics 2012, 11 (3), M111.014068). […]

CNCCN1CCC(c2cc(CN(C)C(=O)c3cccc(Oc4ccc(OCC(=O)N5CCC(CN6CCC(CN7CCN(CC(=O)N[C@H](C(=O)N8C[C@H](O)C[C@H]8C(=O)N[C@@H](C)c8ccc(-c9scnc9C)cc8)C(C)(C)C)CC7)CC6)CC5)cc4)c3)ccn2)CC1 [Compound 3b, (2S,4R)-1-((S)-3,3-dimethyl-2-(2-(4-((1-((1-(2-(4-(3-(methyl((2-(1-(2-(methylamino)ethyl)piperidin-4-yl)pyridin-4-yl)methyl)carbamoyl)phenoxy)phenoxy)acetyl)piperidin-4-yl)methyl)piperidin-4-yl)methyl)piperazin-1-yl)acetamido)butanoyl)-4-hydroxy-N—((S)-1-(4-(4-methylthiazol-5-yl)phenyl)ethyl)pyrrolidine-2-carboxamide]
CARM1 protein level in proteomics: significant downregulation
